Experiment in all cases: scanMax kinase panel (Eurofins)
Holding throughout (format): binding

Assay [1] deals with PAK5. As to conditions: PAK5, 1 μM. On the procedure: (§1) The following assay method was performed to evaluate the inhibitory activities of a compound according to the present invention with respect to various enzymes. […] The compound was applied to the enzyme at a concentration of 1 μM, dissolved in DMSO, and the % control was determined according to Equation 1 below.
(§2) Here, the positive control refers to a compound corresponding to 0% control, and the negative control refers to a compound corresponding to 100% control.

Assay [2] deals with T1, ROCKI (Homo sapiens, UniProt Q13464).
T1 construct: purchased Eurofins scanMax kinase panel
Particulars: read-out: % control. The procedure: as §1, §2

For assay [3], the target named is T2, ABL1(Q252H)-nonphosphorylated (Homo sapiens, UniProt P00519, Q252H).
T2 construct: purchased Eurofins
As to conditions: read-out: % control. The procedure: as §1, §2

The target of assay [4] is T3, MEK2 (Homo sapiens, UniProt P36507).
T3 construct: purchased Eurofins
Particulars: MEK2, 1 μM; read-out: % control. On the procedure: as §1, §2

For assay [5], the target named is T4, DYRK1B (Homo sapiens, UniProt Q9Y463).
T4 construct: purchased Eurofins scanMax® kinase panel
As to conditions: read-out: % control. On the procedure:
as §1, §2

Assay [6] concerns the target T5, MAP3K15 (Homo sapiens, UniProt Q6ZN16).
T5 construct: purchased Eurofins
As to conditions: MAP3K15, 1 μM; read-out: % control. The procedure:
as §1, §2

Assay [7] addresses T6, RET(M918T) (Homo sapiens, UniProt P07949, M918T).
T6 construct: purchased Eurofins scanMax kinase panel
As to conditions: read-out: % control. On the procedure:
as §1, §2

The target in assay [8] is T7, HIPK4 (Homo sapiens, UniProt Q8NE63).
T7 construct: purchased Eurofins
Particulars: HIPK4, 1 μM; read-out: % control. On the procedure:
as §1, §2

Assay [9] deals with T8, ABL1(H396P)-nonphosphorylated (Homo sapiens, UniProt P00519, H396P).
T8 construct: purchased Eurofins
Particulars: read-out: % control. The procedure:
as §1, §2

Assay [10] addresses T9, ERK2 (Homo sapiens, UniProt P28482).
T9 construct: purchased Eurofins scanMax® kinase panel
Particulars: ERK2, 1 μM; read-out: % control. The procedure:
as §1, §2

Assay [11] concerns the target T10, YES1 (Homo sapiens, UniProt P07947).
T10 construct: purchased Eurofins scanMax kinase panel
As to conditions: YES1, 1 μM; read-out: % control. The procedure: as §1, §2

Assay [12] addresses T11, CDK4-cyclinD3 (Homo sapiens, UniProt P11802).
T11 construct: purchased Eurofins scanMax® kinase panel
Particulars: CDK4-cyclinD3, 1 μM; read-out: % control. On the procedure:
as §1, §2

The target in assay [13] is T12, ABL1-nonphosphorylated (Homo sapiens, UniProt P00519).
T12 construct: purchased Eurofins
As to conditions: read-out: % control. The procedure:
as §1, §2

For assay [14], the target named is T13, MEK5 (Homo sapiens, UniProt Q13163).
T13 construct: purchased Eurofins scanMax kinase panel
Particulars: MEK5, 1 μM; read-out: % control. The procedure: as §1, §2

Assay [15] addresses T14, IRAK3 (Homo sapiens, UniProt Q9Y616).
T14 construct: purchased Eurofins
Particulars: IRAK3, 1 μM; read-out: % control. The procedure: as §1, §2

Assay [16] addresses T15, PIM2 (Homo sapiens, UniProt Q9P1W9).
T15 construct: purchased Eurofins scanMax kinase panel
Particulars: PIM2, 1 μM; read-out: % control. On the procedure:
as §1, §2

Assay [17] has as its target T16, HIPK2 (Homo sapiens, UniProt Q9H2X6).
T16 construct: purchased Eurofins scanMax® kinase panel
As to conditions: HIPK2, 1 μM; read-out: % control. The procedure:
as §1, §2

Assay [18] addresses T17, AXL (Homo sapiens, UniProt P30530).
T17 construct: purchased Eurofins
As to conditions: read-out: % control. The procedure:
as §1, §2

This is an account of results in patent publication US20260234129A1, “NOVEL IMIDAZOLE DERIVATIVE AND USE THEREOF” (PELEMED CO., LTD., priority 2023, published 2026).

Bounds are passed on as bounds.

T16 sequence (Q9H2X6 whole entry): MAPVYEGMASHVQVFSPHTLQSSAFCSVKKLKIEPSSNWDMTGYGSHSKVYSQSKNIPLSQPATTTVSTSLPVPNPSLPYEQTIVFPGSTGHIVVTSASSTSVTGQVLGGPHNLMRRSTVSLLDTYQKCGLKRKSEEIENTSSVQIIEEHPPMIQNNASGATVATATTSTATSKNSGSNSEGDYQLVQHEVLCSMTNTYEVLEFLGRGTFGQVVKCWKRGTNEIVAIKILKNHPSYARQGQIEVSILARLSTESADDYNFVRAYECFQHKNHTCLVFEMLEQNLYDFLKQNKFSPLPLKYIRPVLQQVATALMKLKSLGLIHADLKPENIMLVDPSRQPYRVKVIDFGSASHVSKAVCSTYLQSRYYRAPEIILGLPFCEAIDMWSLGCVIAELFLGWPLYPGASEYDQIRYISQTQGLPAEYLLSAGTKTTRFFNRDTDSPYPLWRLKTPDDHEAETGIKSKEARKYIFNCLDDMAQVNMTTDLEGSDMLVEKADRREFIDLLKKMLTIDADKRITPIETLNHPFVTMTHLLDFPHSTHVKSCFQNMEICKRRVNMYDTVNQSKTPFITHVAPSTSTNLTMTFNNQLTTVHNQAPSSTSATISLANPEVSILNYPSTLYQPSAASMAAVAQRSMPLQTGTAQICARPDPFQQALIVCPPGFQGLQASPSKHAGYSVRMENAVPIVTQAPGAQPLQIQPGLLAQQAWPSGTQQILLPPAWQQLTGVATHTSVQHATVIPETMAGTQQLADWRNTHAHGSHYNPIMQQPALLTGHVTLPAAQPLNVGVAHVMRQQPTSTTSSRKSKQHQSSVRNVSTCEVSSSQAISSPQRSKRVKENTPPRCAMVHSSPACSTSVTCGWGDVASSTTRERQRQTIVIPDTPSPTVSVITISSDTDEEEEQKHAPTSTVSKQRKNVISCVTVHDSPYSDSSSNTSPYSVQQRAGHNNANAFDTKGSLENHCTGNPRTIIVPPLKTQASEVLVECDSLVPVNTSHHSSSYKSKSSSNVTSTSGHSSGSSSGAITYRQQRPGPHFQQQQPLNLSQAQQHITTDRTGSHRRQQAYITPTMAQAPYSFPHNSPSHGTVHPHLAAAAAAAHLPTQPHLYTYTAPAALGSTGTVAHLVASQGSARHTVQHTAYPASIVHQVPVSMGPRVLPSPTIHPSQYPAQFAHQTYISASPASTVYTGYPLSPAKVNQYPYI
T6 sequence (P07949 29-1114 M918T): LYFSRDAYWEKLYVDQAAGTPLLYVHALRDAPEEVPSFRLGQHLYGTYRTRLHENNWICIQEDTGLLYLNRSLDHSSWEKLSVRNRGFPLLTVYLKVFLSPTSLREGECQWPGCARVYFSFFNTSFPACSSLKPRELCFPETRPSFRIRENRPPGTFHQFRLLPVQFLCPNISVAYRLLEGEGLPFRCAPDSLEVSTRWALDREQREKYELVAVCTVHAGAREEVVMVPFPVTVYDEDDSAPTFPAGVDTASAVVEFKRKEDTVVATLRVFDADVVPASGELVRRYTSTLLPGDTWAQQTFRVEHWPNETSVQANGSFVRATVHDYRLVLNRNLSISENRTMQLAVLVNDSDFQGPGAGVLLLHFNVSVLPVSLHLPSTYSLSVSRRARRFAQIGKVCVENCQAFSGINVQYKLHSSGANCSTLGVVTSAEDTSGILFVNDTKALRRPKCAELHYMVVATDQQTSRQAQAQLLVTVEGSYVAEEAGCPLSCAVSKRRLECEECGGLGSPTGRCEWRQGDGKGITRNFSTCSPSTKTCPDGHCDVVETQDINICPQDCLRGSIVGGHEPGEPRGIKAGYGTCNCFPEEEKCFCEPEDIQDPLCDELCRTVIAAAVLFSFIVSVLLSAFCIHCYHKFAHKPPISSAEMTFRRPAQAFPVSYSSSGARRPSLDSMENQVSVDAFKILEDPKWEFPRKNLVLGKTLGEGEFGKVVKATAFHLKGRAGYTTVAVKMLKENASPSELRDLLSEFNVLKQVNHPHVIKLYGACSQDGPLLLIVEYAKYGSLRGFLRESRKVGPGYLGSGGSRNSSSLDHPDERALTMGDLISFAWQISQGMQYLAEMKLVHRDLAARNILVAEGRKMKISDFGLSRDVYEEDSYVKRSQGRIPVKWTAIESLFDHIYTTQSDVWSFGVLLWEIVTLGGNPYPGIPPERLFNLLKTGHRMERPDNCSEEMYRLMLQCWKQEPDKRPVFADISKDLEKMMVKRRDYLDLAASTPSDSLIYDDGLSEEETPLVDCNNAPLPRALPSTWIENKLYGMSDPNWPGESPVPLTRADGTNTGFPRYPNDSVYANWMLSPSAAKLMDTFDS
T14 sequence (Q9Y616 whole entry): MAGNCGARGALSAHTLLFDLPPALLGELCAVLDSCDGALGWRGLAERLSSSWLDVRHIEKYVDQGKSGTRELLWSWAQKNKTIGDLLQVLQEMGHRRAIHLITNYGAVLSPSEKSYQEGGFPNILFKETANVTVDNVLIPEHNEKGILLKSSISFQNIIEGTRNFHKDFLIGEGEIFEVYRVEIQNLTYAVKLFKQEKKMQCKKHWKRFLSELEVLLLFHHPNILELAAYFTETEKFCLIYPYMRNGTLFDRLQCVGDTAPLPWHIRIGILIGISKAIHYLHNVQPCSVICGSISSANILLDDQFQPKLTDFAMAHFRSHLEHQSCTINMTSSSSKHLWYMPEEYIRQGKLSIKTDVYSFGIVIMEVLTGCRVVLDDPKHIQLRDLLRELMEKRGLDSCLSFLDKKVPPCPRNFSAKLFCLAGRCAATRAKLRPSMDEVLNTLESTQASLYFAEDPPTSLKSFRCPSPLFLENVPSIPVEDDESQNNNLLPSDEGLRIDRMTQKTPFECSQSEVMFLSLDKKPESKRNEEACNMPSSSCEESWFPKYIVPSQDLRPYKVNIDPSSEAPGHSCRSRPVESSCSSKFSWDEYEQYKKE
T7 sequence (Q8NE63 whole entry): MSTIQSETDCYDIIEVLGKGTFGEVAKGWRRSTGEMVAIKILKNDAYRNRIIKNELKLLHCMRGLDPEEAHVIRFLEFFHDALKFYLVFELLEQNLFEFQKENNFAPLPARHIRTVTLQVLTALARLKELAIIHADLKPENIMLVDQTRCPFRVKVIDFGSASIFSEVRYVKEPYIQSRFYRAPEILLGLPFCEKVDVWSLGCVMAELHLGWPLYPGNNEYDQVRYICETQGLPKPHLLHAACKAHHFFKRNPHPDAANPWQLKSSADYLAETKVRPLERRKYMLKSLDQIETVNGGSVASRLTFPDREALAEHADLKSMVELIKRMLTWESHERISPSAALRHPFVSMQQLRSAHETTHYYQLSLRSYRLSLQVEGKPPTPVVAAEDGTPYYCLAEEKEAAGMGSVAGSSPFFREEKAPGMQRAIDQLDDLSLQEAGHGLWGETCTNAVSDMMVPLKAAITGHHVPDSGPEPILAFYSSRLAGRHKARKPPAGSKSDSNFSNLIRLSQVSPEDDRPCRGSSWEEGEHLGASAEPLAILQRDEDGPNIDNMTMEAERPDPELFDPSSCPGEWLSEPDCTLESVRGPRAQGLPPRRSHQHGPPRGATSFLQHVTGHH
T4 sequence (Q9Y463 whole entry): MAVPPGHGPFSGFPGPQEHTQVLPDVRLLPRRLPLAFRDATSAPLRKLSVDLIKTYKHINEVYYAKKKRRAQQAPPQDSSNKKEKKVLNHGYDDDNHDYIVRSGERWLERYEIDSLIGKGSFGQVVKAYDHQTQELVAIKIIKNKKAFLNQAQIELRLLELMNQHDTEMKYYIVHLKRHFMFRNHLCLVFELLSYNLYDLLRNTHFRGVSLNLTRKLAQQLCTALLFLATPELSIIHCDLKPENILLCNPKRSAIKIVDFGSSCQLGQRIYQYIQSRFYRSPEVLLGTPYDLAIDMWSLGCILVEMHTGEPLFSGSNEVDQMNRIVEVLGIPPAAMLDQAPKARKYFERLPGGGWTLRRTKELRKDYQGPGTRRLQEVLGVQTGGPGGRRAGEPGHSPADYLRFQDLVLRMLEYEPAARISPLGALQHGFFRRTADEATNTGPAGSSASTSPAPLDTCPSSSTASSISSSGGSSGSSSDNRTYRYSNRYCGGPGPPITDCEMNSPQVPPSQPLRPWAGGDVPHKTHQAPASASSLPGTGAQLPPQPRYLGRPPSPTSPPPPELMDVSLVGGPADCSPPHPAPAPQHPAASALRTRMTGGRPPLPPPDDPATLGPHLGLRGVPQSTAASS
T17 sequence (P30530 26-894): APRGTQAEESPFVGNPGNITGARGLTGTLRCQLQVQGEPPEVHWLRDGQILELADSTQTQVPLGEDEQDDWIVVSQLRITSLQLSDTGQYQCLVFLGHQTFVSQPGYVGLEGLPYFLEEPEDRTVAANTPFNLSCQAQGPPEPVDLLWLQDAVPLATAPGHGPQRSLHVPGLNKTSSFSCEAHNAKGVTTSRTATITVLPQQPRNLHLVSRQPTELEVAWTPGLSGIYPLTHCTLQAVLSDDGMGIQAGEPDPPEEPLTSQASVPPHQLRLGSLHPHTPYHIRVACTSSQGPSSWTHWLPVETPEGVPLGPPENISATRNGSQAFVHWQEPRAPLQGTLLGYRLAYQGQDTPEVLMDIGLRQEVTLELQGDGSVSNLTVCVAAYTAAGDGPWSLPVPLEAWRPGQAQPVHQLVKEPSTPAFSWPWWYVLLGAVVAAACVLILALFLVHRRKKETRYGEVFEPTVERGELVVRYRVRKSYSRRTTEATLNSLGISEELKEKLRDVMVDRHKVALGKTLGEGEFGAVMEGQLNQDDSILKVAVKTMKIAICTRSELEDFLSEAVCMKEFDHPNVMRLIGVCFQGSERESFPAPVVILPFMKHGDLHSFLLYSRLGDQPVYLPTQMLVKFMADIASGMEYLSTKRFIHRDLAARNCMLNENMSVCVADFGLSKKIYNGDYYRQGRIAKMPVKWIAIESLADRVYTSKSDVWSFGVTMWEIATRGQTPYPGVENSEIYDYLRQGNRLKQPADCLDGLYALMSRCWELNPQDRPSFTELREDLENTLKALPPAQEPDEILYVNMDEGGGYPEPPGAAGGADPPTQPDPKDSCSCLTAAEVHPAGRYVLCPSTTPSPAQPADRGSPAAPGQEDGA

On to `COc1ccc2nc(-c3n[nH]c4ccc(C(=O)N[C@H]5CC[C@H](N)C5)cc34)[nH]c2c1` [Example 32, N-((1S,3S)-3-aminocyclopentyl)-3-(6-methoxy-1H-benzo[d]imidazol-2-yl)-1H-indazole-5-carboxamide], for which the “% control” value in assay [1] is reported as “less than 10 % control”. Further, the remaining binding at 1 µM in [2], in assay [3], in [4], in assay [5], in assay [6] and in [7] was under 10% each time. The remaining binding at 1 µM in [8], in assay [9], in assay [10], in [11], in [12] and in assay [13] was under 10% each time. Besides, the remaining binding at 1 µM in assay [14], in assay [15], in assay [16], in assay [17] and in [18] was under 10% each time.
